Results reported in ChEMBL document CHEMBL4725244, “Immunomodulation-mediated anticancer activity of a novel compound from Brugmansia suaveolens leaves” (Bioorg Med Chem, 2020).
The source made the active and inactive calls. The rule behind the calls is not given here.

Columns and labels:
[1] = Immuno-modulation activity in human PBMC assessed as increase in cell proliferation at 10 uM after 48 hrs by MTT assay relative to control; assay type: functional
[2] = (§1) Immunomodulation-mediated anticancer activity against human MCF7 cells assessed as human PBMC-mediated decrease in mitochondrial membrane potential at 10 uM pretreated with effector PBMC cells for 6 hrs followed by co-culturing of target cancer cells with PBMC at ratio of 1:10 for 24 hrs by rhodamine 123 staining based fluorometric analysis (reference value: 5%); assay type: functional
[3] = (§2) Immunomodulation-mediated anticancer activity against human MCF7 cells assessed as human PBMC-mediated cell cycle arrest by measuring increase in proportion of cells at subG1 phase at 10 uM pretreated with effector PBMC cells for 48 hrs followed by co-culturing of target cancer cells with PBMC at ratio of 1:10 for 24 hrs by propidium iodide staining based flow cytometry relative to control; assay type: functional
[4] = as §2, with “measuring” for “measuring increase in”, “S” for “subG1”, “(reference value: 19.6%)” for “relative to control”; assay type: functional
[5] = as §1, with “increase” for “decrease”, “ROS generation” for “mitochondrial membrane potential”, “48” for “6”, “6” for “24”, “DCFH-DA” for “rhodamine 123”, “7%)” for “5%)”; assay type: functional
[6] = Cytotoxicity against human MCF7 cells assessed as reduction in cell viability at 5 to 20 uM measured after 24 hrs by MTT assay relative to control; assay type: cell-based; settings: dose 5-20 µM, read-out: INH
PBMC = assay: Immuno-modulation activity in human PBMC assessed as increase in cell proliferation at 20 uM after 48 hrs by MTT assay; assay type: functional, tissue-based
[7] = Immuno-modulation activity in human PBMC assessed as increase in IFNgamma secretion at 10 uM after 48 hrs by ELISA relative to control; assay type: functional
[8] = Immuno-modulation activity in human PBMC assessed as increase in IL-2 secretion at 10 uM after 48 hrs by ELISA relative to control; assay type: functional
[9] = (§3) Immunomodulation-mediated anticancer activity against human MCF7 cells assessed as human PBMC-mediated inhibition of cancer cell viability at 10 uM pretreated with effector PBMC cells for 48 hrs followed by co-culturing of target cancer cells with PBMC at ratio of 1:2.5 to 1:20 and measured after 24 hrs by MTT assay; assay type: functional
[10] = as §2, with “measuring” for “measuring increase in”, “G2M” for “subG1”, “(reference value: 10.5%)” for “relative to control”; assay type: functional
A549 = assay: as §3, with “A549” for “MCF7”, “1:10” for “1:2.5 to 1:20”, “[…] (reference value: 5%)” for “MTT assay”; assay type: functional
[11] = as §2, with “measuring” for “measuring increase in”, “G0G1” for “subG1”, “(reference value: 64.6%)” for “relative to control”; assay type: functional
[12] = as §3, with “1:10” for “1:2.5 to 1:20”, “assay (reference value: 5%)” for “assay”; assay type: functional
[13] = as §2, with “measuring” for “measuring increase in”, “subbG1” for “subG1”, “(reference value: 4.8%)” for “relative to control”; assay type: functional

## COc1ccc(OC)c2c1OC(=O)CC[C@H](O)C2=O
[1]
  Activity: 92%
[2]
  inhibition at 10 µM: 66%
[3]
  fold change (FC): 5
[4]
  Activity: 13.2%
[5]
  Activity: 79%
[6]
  cytotoxicity at 24 h, up to 20 µM: < 30%
PBMC
  Activity: Active
[7]
  fold change (FC): 3
[8]
  fold change (FC): 3
[9]
  Activity: <=70%
[10]
  Activity: 59%
A549
  inhibition at 10 µM: 32%
[11]
  Activity: 51.8%
[12]
  inhibition at 10 µM: 67%
[13]
  Activity: 28.4%
